# What was measured:
# Assay type in all cases: biochemical
# [1] = test system: 3′-5′ cAMP-PDE activity in bovine seminal plasma; assay: 3′-5′ cAMP-PDE assay with family-specific PDE inhibitors in bovine seminal plasma; conditions: thawed bovine seminal plasma, papaverine 400 nM (FIG. 8)
# Procedure: Fresh ejaculated bovine sperm, at known concentrations, was transported for three hours at 18° C. Upon arrival specimens were centrifuged at 400×g during 10 minutes at room temperature to gently pull down spermatozoa. Supernatant was transferred and centrifuged again at 6 000×g at 4° C. during 20 minutes to pull down any remaining spermatozoa. Supernatant was then transferred and centrifuged at 6 000×g at 4° C. during 20 minutes to remove any remaining debris. Seminal plasma (SP) samples were kept on ice until used for PDE assay and stored at −80° C. for further characterization.
# (§1) The cAMP enzymatic assay (PDE assay) was conducted as previously described (Sasseville, M. et al., (2006). BMC developmental biology 6, 47). Samples were directly subjected to PDE assay. 3′-5′ cAMP-PDE activity was assessed at 34° C. in 200 μL final volume using 1 μM cAMP as substrate (Thompson, W. J. et al., (1979). Adv Cyclic Nucleotide Res 10, 69-92) with minor modifications. […] Knowing the exact concentrations of spermatozoa in each SP sample, total 3′-5′ cAMP-PDE activity was reported as the quantity of cAMP (fMol) hydrolysed per minute per the number of spermatozoa (fMol/min/10^6 spz). […] To determine which PDE family contributes to total 3′-5′ cAMP-PDE activity, the activity measured in the presence of the respective inhibitors was subtracted from the total. […]
# [2] = test system: 3′-5′ cAMP-PDE activity in bovine testis, caput, cauda and seminal vesicles homogenates; assay: 3′-5′ cAMP-PDE assay in bovine testis, caput, cauda and seminal vesicles homogenates; conditions: Rol 10 μM, Papa 400 nM (FIG. 3)
# Procedure: After thoroughly vortex-agitating for about one minute, samples were centrifuged at 10 000×g for 4 minutes at room temperature. Supernatant fluid was collected and diluted in different volumes of hypotonic buffer depending on the tissue. Testis, caput and cauda homogenates were diluted in 1 mL of hypotonic buffer while seminal vesicle homogenates were diluted in 2 mL of hypotonic buffer. Homogenates were kept on ice until subjected to PDE assay. The cAMP enzymatic assay (PDE assay) was conducted as previously described ([…]. et al., (2006). BMC developmental biology 6, 47). […] J. et al., (1979). Adv Cyclic Nucleotide Res 10, 69-92) with minor modifications. […] Measurements were also performed in the presence of PDE inhibitors: […] Cilostamide and Rolipram were purchased from Biomol. […] Each PDE assay was performed in triplicate for each experiment and each experiment was repeated at least three times. As described ([…]. et al., (2009). […] IBMX-sensitive PDE5 and PDE6 and IBMX-insensitive PDE9 activities are absent from these groups because cGMP is the specific substrate and then are not detected in the cAMP-PDE assay. […] J Dairy Sci 92, 3757-3765; […]., et al. (2007). Endocrinology 148, 1858-1867; Siuciak, J. A. et al., (2006). Neuropharmacology 51, 386-396).
# [3] = test system: 3′-5′ cAMP-PDE activity in bovine cauda epididymal plasma; assay: 3′-5′ cAMP-PDE assay in bovine cauda epididymal plasma; conditions: thawed epididymal plasma 0.5 μL; Papaverine (400 μM) as printed (FIG. 5)
# Procedure: Epididymis from sexually mature bulls was obtained from a local slaughterhouse. Immediately after slaughtering, testicles were kept on ice and brought to the laboratory within 3 hours. Epididymis was dissected and cleared from connective tissues. As already described (Frenette, G. et al., (2002). Biol Reprod 67, 308-313), fluid from the cauda epididymis was collected by retrograde flushing. Epididymal plasma was isolated according to the same centrifugations steps than the seminal plasma as described below.
# as §1
smiles,measurement,setting,value
COc1ccc(Cc2nccc3cc(OC)c(OC)cc23)cc1OC [Papaverine],Share of PDE activity in bovine seminal plasma that is papaverine-sensitive,[1],more than 50%
same,Inhibitor-sensitive PDE activity in bovine male reproductive tissues (in words),[2],low percentage
same,Papaverine-sensitive PDE activity in bovine epididymal fluid (in words),[3],low
